Consider 95 compounds from ChEMBL document CHEMBL3507680, “University of Dundee, Gates Library screen for HepG2 cell viability”.

The nature of this data set: Human HepG2 cell viability assay in 384 well format. Format: toxicity, cell-based. More on the design: dose 125 nL, time 70.5 hour; cytotoxicity at 70.5 h: concentration not given beside the values. As to conditions: HepG2 cells, read-out: Inhibition.

For the compound `CN1C[C@H](O)[C@]2(CCN(Cc3ccc(OC(F)(F)F)cc3)C2)S1(=O)=O`, the cytotoxicity at 70.5 h was -1.23%.

Turning to `CN1C[C@H](O)[C@]2(CCN(Cc3ccc(F)c(F)c3)C2)S1(=O)=O`, the cytotoxicity at 70.5 h was determined as 13.9%.

On to `COc1ccc(CN2CC[C@@]3(C2)[C@H](O)CN(C)S3(=O)=O)cc1F`, for which the cytotoxicity at 70.5 h worked out at 0.857%.

Consider `OC[C@H]1CN2CCN(c3ccccn3)C[C@@H]2[C@@H]1c1ccccc1`, for which the cytotoxicity at 70.5 h was -5.54%.

As to `O=S1(=O)[C@@H](c2ccccc2)[C@H](CO)CN1C1CC1`, the cytotoxicity at 70.5 h is -1.65%.

Take `O=C1c2ncccc2C(CCO)N1Cc1ccccc1` (stereo not given): the cytotoxicity at 70.5 h was -3.47%.

In the case of `CCCC(O)CN1CCC(=O)N(CCOC)Cc2cc3c(cc21)OCO3` (stereo not given), the cytotoxicity at 70.5 h stood at 18.9%.

With `COc1ccc2c(c1)CN(C)C(=O)CCN2CC(O)C(F)(F)F` (stereo not given), the cytotoxicity at 70.5 h amounted to 11.9%.

As for `CCCC(O)CN1CCC(=O)N(C)Cc2cc(F)ccc21` (stereo not given), the cytotoxicity at 70.5 h is 18.5%.

Take `CO[C@H]1C(=O)N(C)C2(CCNCC2)[C@@H]1C(=O)Nc1ccccc1`: the cytotoxicity at 70.5 h was -10.2%.

Regarding `CCOC(=O)N1[C@@H](c2ccco2)[C@@H](CO)C[C@]12CCCCNC2=O`, the cytotoxicity at 70.5 h was -6.22%.

For `COc1ccc2c(c1)CN(Cc1ccco1)C(=O)CCN2`, the cytotoxicity at 70.5 h is -10%.

`O=C1CN(C(=O)C2CCCCC2)CC(O)CN1Cc1ccco1` (stereo not given): the cytotoxicity at 70.5 h was -4.93%.

`CC(C)CN1CC(O)CN(S(=O)(=O)c2ccccc2)CC1=O` (stereo not given): the cytotoxicity at 70.5 h was -10.6%.

In the case of `O=C1CN(S(=O)(=O)c2ccc(F)cc2)CC(O)CN1CC1CC1` (stereo not given), the cytotoxicity at 70.5 h was -9.49%.

`CCCC1CN(CC(C)C)C(=O)c2cccnc2O1` (stereo not given): the cytotoxicity at 70.5 h turned out to be 44%.

Take `CCNC(=O)N1CCC(OC)c2ccccc2N(CC(=O)NC)C(=O)C1` (stereo not given): the cytotoxicity at 70.5 h was -2.79%.

As for `CCOC(=O)C1CC2(CCCC2)N2CCC(=O)N12` (stereo not given), the cytotoxicity at 70.5 h was found to be 0.137%.

As to `O=C(c1ccco1)N1C(CN2CCOCC2)[C@]2(O)CC[C@H]1CC2` (stereo not given in full), the cytotoxicity at 70.5 h was -6%.

Take `COc1ccc(-c2cnc3c(c2)CN(C2CC2)C(=O)CCN3)cc1`: the cytotoxicity at 70.5 h was -4.59%.

`CCOC(=O)[C@@H]1[C@@H](c2ccccc2)CN2CCN(S(C)(=O)=O)C[C@H]12`: the cytotoxicity at 70.5 h was -6.56%.

For the compound `CNC(=O)[C@@H]1[C@H]2CNCCN2C[C@H]1c1ccccc1`, the cytotoxicity at 70.5 h is -6.11%.

Turning to `CO[C@H]1CN(C)S(=O)(=O)[C@@]12CCN(Cc1ccccc1)C2`, the cytotoxicity at 70.5 h is -3.43%.

`CO[C@@H]1CN(c2ccccc2)S(=O)(=O)[C@@]12CCN(CC1CC1)C2`: the cytotoxicity at 70.5 h was -6.15%.

With `CO[C@@H]1CN(c2ccccc2)S(=O)(=O)[C@@]12CCN(C(C)=O)C2`, the cytotoxicity at 70.5 h was -10.5%.

On to `CO[C@@H]1CN(c2ccccc2)S(=O)(=O)[C@@]12CCN(C(=O)N(C)C)C2`, for which the cytotoxicity at 70.5 h is -5.12%.

As for `CC(C)(C)OC(=O)N1CC(=O)N(Cc2ccco2)CC(O)C1` (stereo not given), the cytotoxicity at 70.5 h was -7.3%.

As for `COCC(O)CN1CCC(=O)N(CC2CC2)Cc2ccccc21` (stereo not given), the cytotoxicity at 70.5 h was -3.32%.

Consider `COc1ccc(CN2CC(O)CN(C(=O)OCC(C)(C)C)CC2=O)cc1` (stereo not given), for which the cytotoxicity at 70.5 h is -2.24%.

With `COc1ccc(C(=O)N2CC(=O)N(Cc3cccs3)CC(O)C2)cc1` (stereo not given), the cytotoxicity at 70.5 h was -2.23%.

With `O=C1CN(C(=O)c2ccc(F)cc2)CC(O)CN1Cc1cccs1` (stereo not given), the cytotoxicity at 70.5 h was found to be 1.6%.

As for `COc1cccc(CN2CC(O)CN(C(=O)C3CCC3)CC2=O)c1OC` (stereo not given), the cytotoxicity at 70.5 h was -4.14%.

On to `CC(C)(O)CN1CC(C)(C)CN(C(=O)CCc2ccccc2)CC1=O`, for which the cytotoxicity at 70.5 h was -1.35%.

Regarding `COCC(O)CN1CC(C)(C)CN(C(=O)CCc2ccccc2)CC1=O` (stereo not given), the cytotoxicity at 70.5 h is 0.943%.

`CCN1CC(C)(C)CN(C(=O)CCc2ccccc2)CC1=O`: the cytotoxicity at 70.5 h is -5.69%.

On to `COc1ccccc1C(=O)N1CC(=O)N(CC(C)C)CC(O)C1` (stereo not given), for which the cytotoxicity at 70.5 h is -1.35%.

Regarding `O=C1CN(C(=O)C2CCCCC2)CC(O)CN1Cc1ccc(Cl)cc1` (stereo not given), the cytotoxicity at 70.5 h was -5.09%.

Regarding `CSc1ccc(C(=O)N2CC(=O)N(CC(C)(C)C)CC(O)C2)cc1` (stereo not given), the cytotoxicity at 70.5 h was -0.234%.

As for `CSc1ccc(C(=O)N2CC(=O)N(CC3CC3)CC(O)C2)cc1` (stereo not given), the cytotoxicity at 70.5 h worked out at 2.74%.

Take `CSc1ccc(C(=O)N2CC(=O)N(Cc3cccs3)CC(O)C2)cc1` (stereo not given): the cytotoxicity at 70.5 h is -6.27%.

In the case of `CCOC(=O)N1CCC(OC)c2ccccc2N(C)C(=O)C1` (stereo not given), the cytotoxicity at 70.5 h stood at 1.4%.

In the case of `COC1CCN(C(=O)C2CCCC2)CC(=O)N(C)c2ccccc21` (stereo not given), the cytotoxicity at 70.5 h amounted to 22.2%.

Turning to `COC1CCN(C(=O)COC(C)=O)CC(=O)N(C)c2ccccc21` (stereo not given), the cytotoxicity at 70.5 h is -3.04%.

For the compound `CN1CCN2C[C@@H](CO)[C@H](c3ccccc3)[C@H]2C1`, the cytotoxicity at 70.5 h is -5.05%.

`CNC(=O)[C@@H]1[C@@H](c2ccccc2)CN2CCN(Cc3cccs3)C[C@H]12`: the cytotoxicity at 70.5 h was found to be 0.531%.

Turning to `CNC(=O)[C@@H]1[C@@H](c2ccccc2)CN2CCN(Cc3ccco3)C[C@H]12`, the cytotoxicity at 70.5 h was determined as 23.2%.

Take `CNC(=O)[C@@H]1[C@H]2CN(Cc3ccccn3)CCN2C[C@H]1c1ccccc1`: the cytotoxicity at 70.5 h worked out at 4.19%.

As to `CNC(=O)[C@@H]1[C@H]2CN(Cc3ccoc3)CCN2C[C@H]1c1ccccc1`, the cytotoxicity at 70.5 h is -0.196%.

Consider `CC(=O)N1CCN2C[C@H](CO)[C@@H](c3ccccc3)[C@H]2C1`, for which the cytotoxicity at 70.5 h is -6.55%.

Turning to `COC(=O)N1CC2=CC(C)(C)COc3ccc(OC)c(c32)C1`, the cytotoxicity at 70.5 h was determined as 1.21%.

Turning to `COCCOC(=O)N1CC2=CC(C)(C)COc3ccc(OC)c(c32)C1`, the cytotoxicity at 70.5 h was -1.64%.

On to `CC(C)(C)OC(=O)N1CC(=O)N(CCc2ccccc2)CC(O)C1` (stereo not given), for which the cytotoxicity at 70.5 h was 30.2%.

Regarding `COc1cccc(CN2CC(O)CN(C(=O)C3CC3)CC2=O)c1OC` (stereo not given), the cytotoxicity at 70.5 h stood at 4.25%.

In the case of `Cc1ccc(CN2CC(O)CN(C(=O)OCC(C)C)CC2=O)cc1` (stereo not given), the cytotoxicity at 70.5 h is -4.78%.

For the compound `COC1CCN(C(=O)CC2CCCC2)CC(=O)N(C)c2ccccc21` (stereo not given), the cytotoxicity at 70.5 h is -0.0141%.

As for `COC1CN(C(=O)CC(C)(C)C)CCC(=O)N(C)c2ccccc21` (stereo not given), the cytotoxicity at 70.5 h was -4.95%.

Turning to `O=C(C1CCC1)N1CCC(=O)N(C2CC2)Cc2cc(F)ccc21`, the cytotoxicity at 70.5 h was found to be 1.48%.

Take `CCN1Cc2ccccc2N(C(=O)C2CCC2)CCC1=O`: the cytotoxicity at 70.5 h was -5.17%.

As for `COCCn1ccc2c(C(=O)O)cccc21`, the cytotoxicity at 70.5 h is -3.92%.

As for `CC(C)c1cc(C(=O)O)nc2[nH]c(=O)[nH]c(=O)c12`, the cytotoxicity at 70.5 h was -15.1%.

Consider `O=C(O)CCn1ccc2cc(Br)ccc21`, for which the cytotoxicity at 70.5 h came out at 9.71%.

As to `O=C(O)Cc1cnc(-c2c(Cl)cccc2Cl)s1`, the cytotoxicity at 70.5 h was -12.9%.

Turning to `Cc1ccc2cccc(Oc3nc(C)c(C(=O)O)s3)c2n1`, the cytotoxicity at 70.5 h was determined as 14.9%.

`Cc1nc(NC(C)C)nc2c1CN(Cc1cccs1)CC2`: the cytotoxicity at 70.5 h came to 22.9%.

As for `CC(=O)NCc1noc2c1CN(Cc1cccs1)CC2`, the cytotoxicity at 70.5 h is -1.08%.

`CCN(CC)c1ccc2ccc(C(=O)NC3CC3)cn12`: the cytotoxicity at 70.5 h was -0.636%.

`CS(=O)(=O)N1CCO[C@@H]2CCN(C(=O)c3cccs3)CC[C@H]21`: the cytotoxicity at 70.5 h was determined as 1.12%.

Take `O=C1CCCN1Cc1nnn2c1CN(c1ncccn1)CCC2`: the cytotoxicity at 70.5 h was -9.38%.

`CC(=O)N1CC2(CCN(C(=O)c3cccc4[nH]ccc34)CC2)C1`: the cytotoxicity at 70.5 h is -8.74%.

In the case of `O=C(N[C@@H]1CN(c2ncccn2)[C@@H]2CCCO[C@@H]21)c1cscn1`, the cytotoxicity at 70.5 h stood at 20.2%.

Consider `CS(=O)(=O)N1CC(c2nc[nH]n2)c2cc(C(=O)NC3CC3)ccc21` (stereo not given), for which the cytotoxicity at 70.5 h was -3.52%.

In the case of `CCc1nc(-c2noc3ccc(C(=O)NCCN(C)C)cc23)co1`, the cytotoxicity at 70.5 h is -4.76%.

`O=C(N[C@@H]1CN(c2ncc(F)cn2)[C@@H]2COC[C@@H]21)c1cscn1`: the cytotoxicity at 70.5 h is -13.8%.

For the compound `COCCN(C)C(=O)c1ccc2onc(-c3coc(C)n3)c2c1`, the cytotoxicity at 70.5 h is -16.8%.

As to `NC(Cc1nc(-c2ccccc2)no1)c1ccccc1` (stereo not given), the cytotoxicity at 70.5 h was -6.63%.

Take `CC(C)N(C)C(=O)C1CCC2(CCNCC2)O1` (stereo not given): the cytotoxicity at 70.5 h came out at 5.71%.

Consider `Cc1ccc(NC2COC3(CCN(Cc4ccn(C)n4)CC3)C2)nn1` (stereo not given), for which the cytotoxicity at 70.5 h was -7.47%.

Consider `Cc1noc([C@]23COC[C@H]2CN(Cc2cc(C)on2)C3)n1`, for which the cytotoxicity at 70.5 h was 47.3%.

For the compound `O=S(=O)(N[C@@H]1CCO[C@]2(CCN(CC3CCOCC3)C2)C1)C1CC1`, the cytotoxicity at 70.5 h is -8.9%.

On to `CC(=O)N1CCS(=O)(=O)[C@@H]2CCN(CC(C)C)CC[C@@H]21`, for which the cytotoxicity at 70.5 h was -6.52%.

With `CCO[C@@H]1CN(S(=O)(=O)c2cn(C)cn2)[C@@H]2CCCO[C@@H]21`, the cytotoxicity at 70.5 h was -10.2%.

In the case of `CCC(=O)N1CCC2(CC1)CC(N1CCOCC1)c1cc(C)ccc12` (stereo not given), the cytotoxicity at 70.5 h was -13.5%.

On to `CC(=O)NCc1nn(C)c2c1CN(Cc1ccsc1)C2`, for which the cytotoxicity at 70.5 h was -6.78%.

Regarding `Fc1cnc(N2CCCn3c(nnc3Cn3ccnc3)C2)nc1`, the cytotoxicity at 70.5 h was -4.74%.

`Cn1nc(Cn2cccn2)c2c1CN(Cc1ccsc1)C2`: the cytotoxicity at 70.5 h is -1.91%.

In the case of `Cn1nc(Cn2cccc2)c2c1CN(Cc1ccsc1)C2`, the cytotoxicity at 70.5 h was -9.77%.

Turning to `CCS(=O)(=O)N1CCC2(CC1)CCn1c(-c3cnn(C)c3)cnc12`, the cytotoxicity at 70.5 h is -13%.

For the compound `Cc1ncnc2c1CCN(c1ccccn1)CC2`, the cytotoxicity at 70.5 h is -14%.

For the compound `CCCS(=O)(=O)N1CCC2(CC1)CCn1c(-c3cnn(C)c3)cnc12`, the cytotoxicity at 70.5 h is -11.3%.

As to `Cn1cc(-c2cnc3n2CCC32CCN(S(=O)(=O)C3CC3)CC2)cn1`, the cytotoxicity at 70.5 h was -9.03%.

In the case of `CC(C)n1nc(CN2CCOCC2)c2c1CN(Cc1ccsc1)C2`, the cytotoxicity at 70.5 h is -4.8%.

Consider `CC(C)NC(=O)c1ccc2nnc(C3CN(C)CCN3C)n2c1` (stereo not given), for which the cytotoxicity at 70.5 h was -8.09%.

Regarding `CN1CCN(C)C(c2nnc3ccc(C(=O)N4CCOCC4)cn23)C1` (stereo not given), the cytotoxicity at 70.5 h was -21.5%.

As for `CC(C)CCN1CCc2c(C(=O)N(C)Cc3ccccn3)nn(C)c2C1`, the cytotoxicity at 70.5 h is -2.57%.

Turning to `CC(C)n1nc(CNc2ncccn2)c2c1CN(C)CC2`, the cytotoxicity at 70.5 h is -6%.
